Assay results reported in the supplement of paper PMC7021759.
± gives the standard deviation of the averaged measurements.

Test system: SK-N-MM (SKNMM-MYCN, doxycycline-inducible MYCN)
Assay: area under dose-response curve (CellTiter-Glo viability normalised to plate controls) (AUC (arbitrary units)); higher = more loss of viability; extreme values may be limits of the assay
How it was run: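 SK-N-MM cells carrying doxycycline-inducible MYCN were seeded in 96-well plates at 1250 cells/100 μL, and about 24 h later they received medium with or without doxycycline. Two days after that, 10-point 1:3 dilution series of compounds were added by pin transfer (890-fold dilution of stock), with a second dose on day 4. CellTiter-Glo luminescence was measured 3 or 8 days after drugging. Log2 signals were scaled against the positive and negative controls on each plate and used to calculate the area under the dose-response curve.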

[1] = MYCN induction (doxycycline): +doxycycline (MYCN induced), time after drugging: 3 days
[2] = MYCN induction (doxycycline): +doxycycline (MYCN induced), time after drugging: 8 days
[3] = MYCN induction (doxycycline): no doxycycline (MYCN not induced), time after drugging: 3 days
[4] = MYCN induction (doxycycline): no doxycycline (MYCN not induced), time after drugging: 8 days

Structure (SMILES)	area under dose-response curve [1]	area under dose-response curve [2]	area under dose-response curve [3]	area under dose-response curve [4]
COC(=O)N[C@@H](C)CNc1nccc(-c2cn(C(C)C)nc2-c2cc(Cl)cc(NS(C)(=O)=O)c2F)n1 [LGX-818]	12.9	2.41	11	68.6
CO[C@H]1C[C@@H]2CC[C@@H](C)[C@@](O)(O2)C(=O)C(=O)N2CCCC[C@H]2C(=O)O[C@H]([C@H](C)C[C@@H]2CC[C@@H](OC(=O)C(C)(CO)CO)[C@H](OC)C2)CC(=O)[C@H](C)/C=C(\C)[C@@H](O)[C@@H](OC)C(=O)[C@H](C)C[C@H](C)/C=C/C=C/C=C/1C [TEMSIROLIMUS]	8.87 ± 0.32	–	–	43.4
CO[C@H]1C[C@@H]2CC[C@@H](C)[C@@](O)(O2)C(=O)C(=O)N2CCCC[C@H]2C(=O)O[C@H]([C@H](C)C[C@@H]2CC[C@@H](OCCO)[C@H](OC)C2)CC(=O)[C@H](C)/C=C(\C)[C@@H](O)[C@@H](OC)C(=O)[C@H](C)C[C@H](C)/C=C/C=C/C=C/1C [EVEROLIMUS]	19.6	0	37.3	21.4
CN1C(=O)[C@@]23C[C@]4([C@]56C[C@@]78SS[C@@](CO)(C(=O)N7[C@H]5Nc5ccccc56)N(C)C8=O)c5ccccc5N[C@@H]4N2C(=O)[C@]1(CO)SS3 [CHAETOCIN]	327	374	349	373
O=P1(N(CCCl)CCCl)NCCCO1 (centres undefined) [CYCLOPHOSPHAMIDE]	0	0	0	–
Clc1ccc(NN=C(c2ccccc2)c2ccccn2)nc1 [JIB-04]	33.4	152	17.8	37.1
Cc1cn(-c2cc(NC(=O)c3ccc(C)c(Nc4nccc(-c5cccnc5)n4)c3)cc(C(F)(F)F)c2)cn1 [NILOTINIB]	2.25	2.7	2.22	3.03
NC1(c2ccc(-c3nc4ccn5c(=O)[nH]nc5c4cc3-c3ccccc3)cc2)CCC1 [MK-2206]	–	0	81.6	149
CCOc1ccn(-c2ccc(F)cc2)c(=O)c1C(=O)Nc1ccc(Oc2ccnc(N)c2Cl)c(F)c1	0	0	4.76	74.3
Nc1ncn([C@H]2C[C@H](O)[C@@H](CO)O2)c(=O)n1 [DECITABINE]	4.2	169	0.521	67.4
COc1cc2ncnc(Nc3ccc(F)c(Cl)c3)c2cc1OCCCN1CCOCC1 [GEFITINIB]	80.1	0	93.7	93.8
CN(C)C/C=C/C(=O)Nc1cc2c(Nc3ccc(F)c(Cl)c3)ncnc2cc1O[C@H]1CCOC1 [AFATINIB]	137	145	140	121
OC[C@H]1O[C@@H](n2cnc3c2N=CNC[C@H]3O)C[C@@H]1O [PENTOSTATIN]	0	0	0	–
O=C(Nc1c[nH]nc1-c1nc2ccc(CN3CCOCC3)cc2[nH]1)NC1CC1 [AT9283]	91	206	42.9	145
Cc1cc(Nc2ccc(NC(=O)c3ccc(Nc4ccnc5ccccc45)cc3)cc2)nc(N)n1 [SGI-1027]	80.5	201	26.5	105
CC[C@@]1(O)C(=O)OCc2c1cc1n(c2=O)Cc2cc3c(CN(C)C)c(O)ccc3nc2-1 [TOPOTECAN]	139	216	68.5	105
CCOC(=O)CCNc1cc(N2CCc3ccccc3CC2)nc(-c2ccccn2)n1 [GSK-J4]	0.00103	188	61.4	150
CC(C)NC[C@@H](C(=O)N1CCN(c2ncnc3c2[C@H](C)C[C@H]3O)CC1)c1ccc(Cl)cc1 [IPATASERTIB]	0	0	10.4	0.0606
CNC(=O)c1cc(Oc2ccc(NC(=O)Nc3ccc(Cl)c(C(F)(F)F)c3)c(F)c2)ccn1 [REGORAFENIB]	30.6	47.7	18.8	61.4

Structure (SMILES)	area under dose-response curve [1]	area under dose-response curve [2]	area under dose-response curve [3]	area under dose-response curve [4]
Nc1nc(Cl)nc2c1ncn2[C@H]1C[C@H](O)[C@@H](CO)O1 [CLADRIBINE]	51.7	225	35.7	110
COc1cc2nc(N3CCCN(C)CC3)nc(NC3CCN(Cc4ccccc4)CC3)c2cc1OC	195	247	194	243
CC[C@]1(O)C[C@@H]2CN(CCc3c([nH]c4ccccc34)[C@@](C(=O)OC)(c3cc4c(cc3OC)N(C)[C@H]3[C@@](O)(C(=O)OC)[C@H](OC(C)=O)[C@]5(CC)C=CCN6CC[C@]43[C@@H]65)C2)C1 [VINBLASTINE]	190	284	98.1	177
Nc1nc(Cl)nc2c1ncn2[C@@H]1O[C@H](CO)[C@@H](O)[C@@H]1F [CLOFARABINE]	67.5	248	43	141
O=C(CCCCCCNC(=O)c1cnc(N(c2ccccc2)c2ccccc2)nc1)NO [ROCILINOSTAT]	43.9	94.7	20.4	76.4
Cc1cnc(CNC(=O)c2c(=O)c3ccc(N4CCCN(C)CC4)nc3n3c2sc2ccccc23)cn1 [CX-5461]	–	11.3	11.7	–
CNC(=O)c1cc(Oc2ccc(NC(=O)Nc3ccc(Cl)c(C(F)(F)F)c3)cc2)ccn1 [SORAFENIB]	0	0	0	0
CCc1c2c(nc3ccc(O)cc13)-c1cc3c(c(=O)n1C2)COC(=O)[C@]3(O)CC [SN-38]	152 ± 8.4	295 ± 33	67.4 ± 16	181 ± 37
COc1ccc2c(c1OC)C(=O)O[C@@H]2[C@H]1c2c(cc3c(c2OC)OCO3)CCN1C [NOSCAPINE]	0.556	19.8	0	–
CC1(C)CCC(c2ccc(Cl)cc2)=C(CN2CCN(c3ccc(C(=O)NS(=O)(=O)c4ccc(N[C@H](CCN5CCOCC5)CSc5ccccc5)c(S(=O)(=O)C(F)(F)F)c4)cc3)CC2)C1 [NAVITOCLAX]	8.7	3.92	0	0.362
C[C@H]1[C@H](OC(=O)CCC(=O)O)O[C@@H]2O[C@@]3(C)CC[C@H]4[C@H](C)CC[C@@H]1[C@@]24OO3 [ARTESUNATE]	46.2	60	25.7	25.9
O=C(c1cc(Cc2n[nH]c(=O)c3ccccc23)ccc1F)N1CCN(C(=O)C2CC2)CC1 [OLAPARIB]	9.23	23.6	–	0
CC[C@]1(O)C[C@H]2CN(CCc3c([nH]c4ccccc34)[C@@](C(=O)OC)(c3cc4c(cc3OC)N(C=O)[C@H]3[C@@](O)(C(=O)OC)[C@H](OC(C)=O)[C@]5(CC)C=CCN6CC[C@]43[C@@H]65)C2)C1 [VINCRISTINE]	185	253	89.2	146
CN(C)C1CCN(C(=O)c2ccc(NC(=O)Nc3ccc(-c4nc(N5CCOCC5)nc(N5CCOCC5)n4)cc3)cc2)CC1 [GEDATOLISIB]	39.4	0	27.4	47.7
O=C1NC(=O)[C@@H](c2cn3c4c(cccc24)CCC3)[C@@H]1c1c[nH]c2ccccc12 [TIVANTINIB]	102	135	53.3	77.2
CC(=O)c1ccc2c(c1)c1cc(C(C)=O)ccc1n2CCNC(C)C [CBL-0137]	116	176	94.2	172
CC(=O)OC[C@H]1O[C@@H]([S-])[C@H](OC(C)=O)[C@@H](OC(C)=O)[C@@H]1OC(C)=O.CCP(CC)CC.[Au+] [AURANOFIN]	199	223	188	208
COc1cc(F)ccc1-c1ncnc(Nc2cccc(CS(C)(=N)=O)c2)n1 (centres undefined)	50.3	123	34	131
